Assay results taken from patent US20140106342A1, “METHOD OF ASSAYING DNA TOPOISOMERASES AND DNA BINDING PROTEINS USING HIGH THROUGHPUT SCREENING” (priority 2011, published 2014).
Positions count from the first letter of the chain named. Read-outs that look alike come from different tables or passages of the source. *1 amine or outer side, *2 acyl side, *3 side chain or, on linkers, in order; H or OH if unused. Where a SMILES comes first, the peptide text is derived from it. Bridges are numbered along the chain shown (N, C = ends). Roman numbers before positions name the chains, in order. [ ]: non-standard residue; d: D form. Actinocin(9to1) = Cc1c2oc3c(C)ccc(C(=O)[*:1])c3nc-2c(C(=O)[*:2])c(N)c1=O; NMeV = CN[C@H](C(=O)O)C(C)C; Sar = CNCC(=O)O

Legend:
[1] = target: T1, Y723F topo I mutant (Homo sapiens, UniProt P11387, Y723F); assay: Solid phase assay with catalytically inactive Y723F topo I mutant; type: biochemical; conditions: highest input of protein
T1 construct: purchased TopoGEN, Inc. (Port Orange, Fla.); host or cells: baculovirus expression (Sf9)
T1 sequence (P11387 1-765 Y723F): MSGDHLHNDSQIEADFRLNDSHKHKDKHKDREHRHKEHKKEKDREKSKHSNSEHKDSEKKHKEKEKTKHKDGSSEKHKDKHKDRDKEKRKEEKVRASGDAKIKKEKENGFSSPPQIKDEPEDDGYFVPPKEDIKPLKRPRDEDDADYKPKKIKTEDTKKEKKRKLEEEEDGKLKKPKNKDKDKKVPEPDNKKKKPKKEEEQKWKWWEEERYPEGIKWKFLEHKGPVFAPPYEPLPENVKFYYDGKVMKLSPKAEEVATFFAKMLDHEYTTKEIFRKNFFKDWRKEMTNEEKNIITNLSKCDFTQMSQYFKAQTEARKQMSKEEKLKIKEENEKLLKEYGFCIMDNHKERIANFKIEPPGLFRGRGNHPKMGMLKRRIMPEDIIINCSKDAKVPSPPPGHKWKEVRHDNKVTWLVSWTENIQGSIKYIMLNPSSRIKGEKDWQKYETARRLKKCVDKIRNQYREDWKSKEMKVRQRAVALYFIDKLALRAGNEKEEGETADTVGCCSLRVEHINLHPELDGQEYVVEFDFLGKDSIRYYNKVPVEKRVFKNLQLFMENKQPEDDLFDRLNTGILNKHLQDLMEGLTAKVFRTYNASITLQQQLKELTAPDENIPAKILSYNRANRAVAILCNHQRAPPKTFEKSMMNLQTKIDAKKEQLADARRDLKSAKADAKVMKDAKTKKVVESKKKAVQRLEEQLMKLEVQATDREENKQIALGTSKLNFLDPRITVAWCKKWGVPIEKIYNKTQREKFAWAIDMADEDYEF
Experimental: The unbound enzyme was removed by aspirating off the initial binding solution followed by three washes (about 200 uL each) with cold PBS containing about 0.05% Tween-20 (PBS-T). […] Drugs were dissolved in DMSO and the final DMSO concentration in the reaction never exceeded about 1%. Reactions were incubated for about 1 hr at about 37° C. and terminated by the addition of about 0.1 vol of about 1% SDS (vol:vol) followed by a about 5 min incubation at about 37° C.

[2] = target: T2, human Topo I (Homo sapiens, UniProt P11387); assay: Topo I cleavage complex formation / liquid reactions analysed on agarose-ethidium bromide gel
T2 sequence (P11387 1-765): T1 sequence (P11387 1-765 Y723F) with F723Y

[3] = target: T2, human Topo I; assay: Solid phase topo I HTS assay (His-tag topo I on nickel coated plates, pHOT1 DNA retention by Picogreen fluorescence); type: biochemical; design: The intact human topo I gene was cloned as a His-tag gene; purchased TopoGEN, Inc. (Port Orange, Fla.); host or cells: baculovirus-infected Spodoptera frugiperda Sf9 cells; conditions: for fold increase in DNA binding to wells due to CPT: 96 well
Experimental: FIG. 8 is a flowchart depicting the model for solid phase Topo I screening. […] Free enzyme is washed out and pHOT1 supercoiled DNA is added in a topo I assay buffer. […] Free DNA is then washed out and the relative fluorescence is measured using Picogreen staining. […] The results are expressed as an “HTS Ratio” corresponding to the RFU of experimental to RFU of negative controls (no CPT).
The unbound enzyme was removed by aspirating off the initial binding solution followed by three washes (about 200 uL each) with cold PBS containing about 0.05% Tween-20 (PBS-T). […] Drugs were dissolved in DMSO and the final DMSO concentration in the reaction never exceeded about 1%. Reactions were incubated for about 1 hr at about 37° C. and terminated by the addition of about 0.1 vol of about 1% SDS (vol:vol) followed by a about 5 min incubation at about 37° C. The reaction mixture was next aspirated and washed three times with about 200 uL PBS-T. Picogreen (about 100 ug/mL) was diluted in TE (about 1:400) and about 200 µl was added to each well followed by incubation in the dark for about 5 min. The relative fluorescence was measured at about 485 nm excitation and about 525 nm emission wavelength using a Tecan reader.
In step 5, the readout (relative fluorescent units or RFU retained in the wells) is analyzed based on what is referred to as the ‘HTS Ratio’ (RFU Experimental/RFU in negative control).
Free enzyme is washed out and pHOT1 supercoiled DNA is added in a topo I assay buffer. […] Free DNA is then washed out and the relative fluorescence is measured using Picogreen staining. […] The results are expressed as an “HTS Ratio” corresponding to the RFU of experimental to RFU of negative controls (no CPT).

[4] = tested on: pHOT1 DNA; assay: Nicking of pHOT1 DNA in the absence of topo I
Experimental: . This may explain why some bifunctional alkylators are picked up by the assay. […]. Thus, about 5 compounds out of about 50 scored as potential topo I IFP at about 100 uM input of purified test drug (single asterisk, FIG. 10). A relatively high input of test drug concentrations to amplify false positives was; however, in a typical HTS experiment the concentrations would be much lower and would detect far fewer false leads. […].

[5] = test drug about 100 uM, about 1.0 = minus CPT control, solid phase

CC[C@@]1(O)C(=O)OCc2c1cc1n(c2=O)Cc2cc3ccccc3nc2-1 [CPT, Camptothecin]
CPT stimulation of DNA binding with mutant protein [1]: did not display any CPT stimulation | time for CPT induced complexes to reach a maximal stoichiometric value ([2]; in solution): within a few minutes | magnitude of the increase in +CPT controls ([3]; 96 well format (comparison)): about 2.6 fold | magnitude of the increase in +CPT controls ([3]; 384 well format): about 1.7 fold | fraction of well-bound DNA that is nicked form II ([3]; CPT reactions, about 512 units topo I, about 5 uM CPT, no-CPT about 20%): about 70% | fraction of well-bound DNA that is relaxed (Ir) ([3]; CPT reactions, about 512 units topo I, about 5 uM CPT, no-CPT about 80%): about 30% | drug concentration dependency of solid phase readout ([3]; CPT titration, about 512 units topo I, about 100 ng DNA): did not display drug concentration dependency | magnitude of the increase in form II DNA in +CPT wells over no drug controls ([3]; DNA recovered from wells, gel analysis): 2-3 fold | fold increase in DNA binding to wells due to CPT ([3]; about 16-64 units topo I, about 5 uM CPT): 1.2-2 fold | fold increase in DNA binding to wells due to CPT ([3]; about >100 units topo I, about 5 uM CPT): 2.5-2.7 fold | mean relative fluorescence, +CPT ([3]; high topo I inputs (about 1024, about 512 units), SD +/- about 153, -CPT mean about 1181): about 2877 | time course of CPT induced complexes ([3]; solid phase): continue to accumulate over several hours | relative fluorescence (RFU) of a typical reaction, + control ([3]; typical reaction, - control about 2000): about 4000 fluorescent units

Cc1c2oc3c(C)ccc(C(=O)N[C@@H]4C(=O)N[C@H](C(C)C)C(=O)N5CCC[C@H]5C(=O)N(C)CC(=O)N(C)[C@@H](C(C)C)C(=O)O[C@@H]4C)c3nc-2c(C(=O)N[C@@H]2C(=O)N[C@H](C(C)C)C(=O)N3CCC[C@H]3C(=O)N(C)CC(=O)N(C)[C@@H](C(C)C)C(=O)O[C@@H]2C)c(N)c1=O [Dactinomycin] (I: T[dV]P[Sar][NMeV] / II: T[dV]P[Sar][NMeV]; ester I:1-I:C, II:1-II:C; linker I:N-II:N via Actinocin(9to1))
HTS Ratio (RFU experimental / RFU negative control, no CPT) [3, 5]: about 1.4

CCc1c2c(nc3ccc(OC(=O)N4CCC(N5CCCCC5)CC4)cc13)-c1cc3c(c(=O)n1C2)COC(=O)[C@]3(O)CC [Irinotecan]
HTS Ratio (RFU experimental / RFU negative control, no CPT) [3, 5]: about 1.4

N[C@@H](Cc1ccc(N(CCCl)CCCl)cc1)C(=O)O [Melphalan]
HTS Ratio (RFU experimental / RFU negative control, no CPT) [3, 5]: 1.2-1.3

CNNCc1ccc(C(=O)NC(C)C)cc1 [Procarbazine]
HTS Ratio (RFU experimental / RFU negative control, no CPT) [3, 5]: about 1.65

O=C(c1ccc(OCCN2CCCCC2)cc1)c1c(-c2ccc(O)cc2)sc2cc(O)ccc12 [Raloxifene]
HTS Ratio (RFU experimental / RFU negative control, no CPT) ([3]; test drug about 100 uM, about 1.0 = minus CPT control, solid phase, listed as Reloxifene): about 2.0

CC/C(=C(\c1ccccc1)c1ccc(OCCN(C)C)cc1)c1ccccc1 [Tamoxifen]
induction of topo I cleavages ([2]; data not shown, less than with CPT): induced topo I cleavages

Oc1ncc(N(CCCl)CCCl)c(O)n1 [Uracil mustard]
HTS Ratio (RFU experimental / RFU negative control, no CPT) [3]: about 1.1 | single strand DNA nicks in pHOT1 DNA [4]: induce single strand DNA nicks

O=C1c2c(O)ccc(O)c2C(=O)c2c(NCCNCCO)ccc(NCCNCCO)c21 [mitoxantrone]
effect on DNA binding to bound topo I ([3]; solid phase HTS): strongly reduce DNA binding
